The subject of experiment [1] is SARS-Cov-2. The experiment in a line: Antiviral effectiveness towards SARS-Cov-2: virus incubated on treated surface, replication in VeroE6 cells by qRT-PCR. Format: cell-based. The note with it: for ΔCt / Logarithmic difference: Ag+ 0.108% aqueous solution on surface; for ΔCt: vs untreated; for Logarithmic difference: vs untreated control.
Experiment [2] has as its system blend of Pseudomonas aeruginosa ATCC 15442, Staphylococcus aureus ATCC 6538, Escherichia coli ATCC 10536, Enterococcus hirae ATCC 10541 and Candida albicans …. The experiment in a line: Antimicrobial activity, zone of inhibition on TSA Petri dishes (Example 4). Format: cell-based. The note with it: aqueous solution pH 8.3, [Ag+]=0.1%, 100 μl, 37° C. for 24 h. Here is the method: The antimicrobial activity of an aqueous solution at pH 8.3 of Na^+3[Ag^+(MPA^2−)2]^3− with an ionic concentration of [Ag+]=0.1% was tested against the following blend of microorganism strains (bought from Diagnostic International Distribution S.p.A): Pseudomonas aeruginosa ATCC 15442, Staphylococcus aureus ATCC 6538, Escherichia coli ATCC 10536, Enterococcus hirae ATCC 10541 e Candida albicans ATCC 10231. For each microbial strain, the concentration of the blend was in the range 1.5×10^12−5×10^12 unity forming colonies (UFC). A volume of 100 μl of the blend was seeded in Petri dishes containing a non-selective culture medium TSA (Tryptone Soya Agar) and a sample of 100 μl of said aqueous solution of Na^+3[Ag^+(MPA^2−)2]^3− was put in the centre of each Petri dish in contact with the microbial blend. The Petri dishes were then incubated at 37° C. for 24 h.

For experiment [3], the system named is SARS-Cov-2. The experiment in a line: Cytopathic effect in VeroE6 cells infected with treated SARS-Cov-2, optical microscopy. In general terms: Cytopathic effects are the visible damage that an infection or toxin causes in cultured cells.

In the case of `Cc1nc([S-])sc1CC(=O)[O-].Cc1nc([S-])sc1CC(=O)[O-].[Ag+].[Na+].[Na+].[Na+]` [Aqueous solution containing Ag, Na^+3[Ag^+(MPA^2−)2]^3−], the ΔCt with SARS-Cov-2 [1] (virus 5 minutes, 24 hpi) came out at 3.04; with SARS-Cov-2 [1] (virus 5 minutes, 48 hpi), 1.91; in the experiment with SARS-Cov-2 [1] (virus 5 minutes, 72 hpi), 0.61. In addition, the Logarithmic difference in the experiment on SARS-Cov-2 [1] (virus 5 minutes, 24 hpi) is recorded as −0.91; in the experiment on SARS-Cov-2 [1] (virus 5 minutes, 48 hpi), −0.57; in the experiment on SARS-Cov-2 [1] (virus 5 minutes, 72 hpi), −0.18. Besides, the “reduction of the viral charge” value is given as “not significant” with SARS-Cov-2 [1] (Ag+ 0.108%, at a time more distant from the infection) and 0.82 logarithms in the experiment on SARS-Cov-2 [1] (diluted aqueous solution, Ag+ 0.002%, virus 5 minutes, 24 hours post-infection). Further, the “decrease of the viral charge” value was 0.57 logarithms with SARS-Cov-2 [1] (Ag+ 0.108%, virus 5 minutes, 48 pci) and 0.91 logarithms with SARS-Cov-2 [1] (Ag+ 0.108%, virus 5 minutes, 24 h post-infection). Besides, in experiment [2], the “zone of inhibition (of the microbial growth)” value is recorded as “circa 3 cm”. Also, in the experiment with SARS-Cov-2 [3] (Ag+ 0.002%, 72 hours post-infection), the cytopathic effect entry is given as “small decrease of the cytopathic effect”. Besides, the “cytopathic effect compared to cells infected with untreated virus” value with SARS-Cov-2 [3] (Ag+ 0.108%, 48 hours post-infection) is “lower cytopathic effect”.

The values are drawn from US20240315241A1, “ANTIMICROBIAL POLYMERIC COMPOSITION” (priority 2021, published 2024).
